Data as given in article PMC5931096, “A Phase I study of the novel immunomodulatory agent PG545 (pixatimod) in subjects with advanced solid tumours” (British Journal of Cancer, 2018).
Entries after “also recorded” stand apart in the source; their conditions may differ.

Assay: Phase I dose-escalation: safety, tolerability, DLT and MTD of weekly 1-h IV infusion
Assay type: in vivo
Procedure: The study was an open-label, multicentre, phase 1 dose-escalation study using a 3 + 3 design. The primary objective was to determine the MTD of weekly administered PG545 via IV infusion. Secondary objectives were to characterize safety, tolerability, clinical activity, PK and PD biomarkers.
Patients continued treatment until disease progression, unacceptable toxicity or withdrawal (either voluntarily or investigator-decision).
All patients were assessed for safety, those who received at least one dose of PG545 were evaluated for efficacy. Safety assessment included the incidence of all adverse events (AEs), irrespective of relationship to study drug, according to the National Cancer Institute Common Terminology Criteria for Adverse Events, version 4.0, and the incidence of patients experiencing dose modifications and/or premature discontinuation of study drug. Dose-limiting toxicities (DLTs) used to determine the MTD were defined as occurring during Cycle 1 of treatment only and related to PG545 according to investigator assessment. If no DLT occurred in the first three subjects, the next three-subject cohort was enrolled at the next highest available dose level. If a single DLT occurred, an additional three subjects was enrolled at the same dose level. Dose escalation continued until two subjects of the cohort experienced a DLT; this was defined as the toxic dose level. The dose-escalation phase was completed and MTD determined by reducing the dose to the next lowest dose compared to the toxic dose and expanding this cohort to at least 6 subjects.

[1] = 150 mg, during or 1 h post-infusion, typical
[2] = Life threatening/Fatal, Unrelated, Safety Set

## CC(C)CCC[C@@H](C)[C@H]1CC[C@H]2[C@@H]3CC[C@H]4C[C@@H](O[C@@H]5O[C@H](COS(=O)(=O)O)[C@@H](O[C@H]6O[C@H](COS(=O)(=O)O)[C@@H](O[C@H]7O[C@H](COS(=O)(=O)O)[C@@H](O[C@H]8O[C@H](COS(=O)(=O)O)[C@@H](OS(=O)(=O)O)[C@H](OS(=O)(=O)O)[C@H]8OS(=O)(=O)O)[C@H](OS(=O)(=O)O)[C@H]7OS(=O)(=O)O)[C@H](OS(=O)(=O)O)[C@H]6OS(=O)(=O)O)[C@H](OS(=O)(=O)O)[C@H]5OS(=O)(=O)O)CC[C@]4(C)[C@H]3CC[C@]12C [PG545]
25 mg, N = 3
  Acute pulmonary oedema, related AE leading to discontinuation: 0 n (%)
  Acute pulmonary oedema, related serious AE: 0 n (%)
  Acute pulmonary oedema, related severe AE: 0 n (%)
  Blood cholesterol increased, related severe AE: 0 n (%)
  Blood cholesterol increased, treatment-related AE: 0 n (%)
  Blood pressure increased, related severe AE: 0 n (%)
  Chills, related AE leading to discontinuation: 0 n (%)
  Chills, related severe AE: 0 n (%)
  Chills, treatment-related AE: 0 n (%)
  Decreased appetite, treatment-related AE: 0 n (%)
  Diarrhoea, treatment-related AE: 0 n (%)
  Epistaxis, related AE leading to discontinuation: 0 n (%)
  Epistaxis, related serious AE: 0 n (%)
  Epistaxis, related severe AE: 0 n (%)
  Fatigue, related severe AE: 0 n (%)
  Fatigue, treatment-related AE: 0 n (%)
  Headache, treatment-related AE: 0 n (%)
  Hypercholesterolemia, treatment-related AE: 0 n (%)
  Hyperlipidaemia, related severe AE: 0 n (%)
  Hypertension, related AE leading to discontinuation: 0 n (%)
  Hypertension, related serious AE: 0 n (%)
  Hypertension, related severe AE: 0 n (%)
  Hypertension, treatment-related AE: 0 n (%)
  Hypovolaemia, related serious AE: 0 n (%)
  Infusion-related reaction, related serious AE: 0 n (%)
  Infusion-related reaction, related severe AE: 0 n (%)
  Infusion-related reaction, treatment-related AE: 0 n (%)
  Injection site reaction, treatment-related AE: 2 (67) n (%)
  Nausea, treatment-related AE: 0 n (%)
  Pyrexia, related AE leading to discontinuation: 0 n (%)
  Pyrexia, related serious AE: 0 n (%)
  Pyrexia, related severe AE: 0 n (%)
  Pyrexia, treatment-related AE: 0 n (%)
50 mg, N = 5
  Acute pulmonary oedema, related AE leading to discontinuation: 0 n (%)
  Acute pulmonary oedema, related serious AE: 0 n (%)
  Acute pulmonary oedema, related severe AE: 0 n (%)
  Blood cholesterol increased, related severe AE: 0 n (%)
  Blood cholesterol increased, treatment-related AE: 0 n (%)
  Blood pressure increased, related severe AE: 0 n (%)
  Chills, related AE leading to discontinuation: 1 (20) n (%)
  Chills, related severe AE: 1 (20) n (%)
  Chills, treatment-related AE: 1 (20) n (%)
  Decreased appetite, treatment-related AE: 2 (40) n (%)
  Diarrhoea, treatment-related AE: 1 (20) n (%)
  Epistaxis, related AE leading to discontinuation: 0 n (%)
  Epistaxis, related serious AE: 0 n (%)
  Epistaxis, related severe AE: 0 n (%)
  Fatigue, related severe AE: 1 (20) n (%)
  Fatigue, treatment-related AE: 2 (40) n (%)
  Headache, treatment-related AE: 0 n (%)
  Hypercholesterolemia, treatment-related AE: 0 n (%)
  Hyperlipidaemia, related severe AE: 0 n (%)
  Hypertension, related AE leading to discontinuation: 0 n (%)
  Hypertension, related serious AE: 0 n (%)
  Hypertension, related severe AE: 0 n (%)
  Hypertension, treatment-related AE: 1 (20) n (%)
  Hypovolaemia, related serious AE: 0 n (%)
  Infusion-related reaction, related serious AE: 0 n (%)
  Infusion-related reaction, related severe AE: 0 n (%)
  Infusion-related reaction, treatment-related AE: 0 n (%)
  Injection site reaction, treatment-related AE: 0 n (%)
  Nausea, treatment-related AE: 4 (80) n (%)
  Pyrexia, related AE leading to discontinuation: 1 (20) n (%)
  Pyrexia, related serious AE: 1 (20) n (%)
  Pyrexia, related severe AE: 1 (20) n (%)
  Pyrexia, treatment-related AE: 3 (60) n (%)
100 mg cohort
  Dose-limiting toxicities (DLTs): No DLTs were noted; also recorded: no further DLT observed
  Hypertension: not observed
100 mg, N = 6
  Acute pulmonary oedema, related AE leading to discontinuation: 0 n (%)
  Acute pulmonary oedema, related serious AE: 0 n (%)
  Acute pulmonary oedema, related severe AE: 0 n (%)
  Blood cholesterol increased, related severe AE: 0 n (%)
  Blood cholesterol increased, treatment-related AE: 1 (17) n (%)
  Blood pressure increased, related severe AE: 0 n (%)
  Chills, related AE leading to discontinuation: 0 n (%)
  Chills, related severe AE: 0 n (%)
  Chills, treatment-related AE: 0 n (%)
  Decreased appetite, treatment-related AE: 1 (17) n (%)
  Diarrhoea, treatment-related AE: 2 (33) n (%)
  Epistaxis, related AE leading to discontinuation: 0 n (%)
  Epistaxis, related serious AE: 0 n (%)
  Epistaxis, related severe AE: 0 n (%)
  Fatigue, related severe AE: 1 (17) n (%)
  Fatigue, treatment-related AE: 2 (33) n (%)
  Headache, treatment-related AE: 2 (33) n (%)
  Hypercholesterolemia, treatment-related AE: 2 (33) n (%)
  Hyperlipidaemia, related severe AE: 1 (17) n (%)
  Hypertension, related AE leading to discontinuation: 0 n (%)
  Hypertension, related serious AE: 0 n (%)
  Hypertension, related severe AE: 0 n (%)
  Hypertension, treatment-related AE: 0 n (%)
  Hypovolaemia, related serious AE: 1 (17) n (%)
  Infusion-related reaction, related serious AE: 0 n (%)
  Infusion-related reaction, related severe AE: 0 n (%)
  Infusion-related reaction, treatment-related AE: 0 n (%)
  Injection site reaction, treatment-related AE: 0 n (%)
  Nausea, treatment-related AE: 0 n (%)
  Pyrexia, related AE leading to discontinuation: 0 n (%)
  Pyrexia, related serious AE: 0 n (%)
  Pyrexia, related severe AE: 0 n (%)
  Pyrexia, treatment-related AE: 1 (17) n (%)
150 mg cohort, first cycle
  Dose-limiting toxicities (DLTs), number: Three
150 mg, N = 9
  Acute pulmonary oedema, related AE leading to discontinuation: 1 (11) n (%)
  Acute pulmonary oedema, related serious AE: 1 (11) n (%)
  Acute pulmonary oedema, related severe AE: 1 (11) n (%)
  Blood cholesterol increased, related severe AE: 1 (11) n (%)
  Blood cholesterol increased, treatment-related AE: 1 (11) n (%)
  Blood pressure increased, related severe AE: 1 (11) n (%)
  Chills, related AE leading to discontinuation: 0 n (%)
  Chills, related severe AE: 1 (11) n (%)
  Chills, treatment-related AE: 4 (44) n (%)
  Decreased appetite, treatment-related AE: 2 (22) n (%)
  Diarrhoea, treatment-related AE: 1 (11) n (%)
  Epistaxis, related AE leading to discontinuation: 1 (11) n (%)
  Epistaxis, related serious AE: 1 (11) n (%)
  Epistaxis, related severe AE: 1 (11) n (%)
  Fatigue, related severe AE: 0 n (%)
  Fatigue, treatment-related AE: 1 (11) n (%)
  Headache, treatment-related AE: 0 n (%)
  Hypercholesterolemia, treatment-related AE: 0 n (%)
  Hyperlipidaemia, related severe AE: 0 n (%)
  Hypertension, related AE leading to discontinuation: 1 (11) n (%)
  Hypertension, related serious AE: 1 (11) n (%)
  Hypertension, related severe AE: 5 (56) n (%)
  Hypertension, treatment-related AE: 5 (56) n (%)
  Hypovolaemia, related serious AE: 0 n (%)
  Infusion-related reaction, related serious AE: 1 (11) n (%)
  Infusion-related reaction, related severe AE: 1 (11) n (%)
  Infusion-related reaction, treatment-related AE: 5 (56) n (%)
  Injection site reaction, treatment-related AE: 0 n (%)
  Nausea, treatment-related AE: 1 (11) n (%)
  Pyrexia, related AE leading to discontinuation: 0 n (%)
  Pyrexia, related serious AE: 0 n (%)
  Pyrexia, related severe AE: 0 n (%)
  Pyrexia, treatment-related AE: 1 (11) n (%)
[1]
  Diastolic pressure during hypertension events, increase to: 100 mm Hg
  Systolic pressure during hypertension events, increase to: 170 mm Hg
150 mg, one subject
  Blood pressure, substantial increase in one subject, to: 200/126
Life threatening/Fatal, Related, Safety Set
  TEAE: At least one event: 0 (0.0%)
[2]
  TEAE: At least one event: 5 (21.7%)
  TEAE: Death: 2 (8.7%)
  TEAE: Fatigue: 1 (4.3%)
  TEAE: GGT increased: 3 (13.0%)
  TEAE: General disorders and administration site conditions: 3 (13.0%)
  TEAE: Hyperuricaemia: 1 (4.3%)
  TEAE: Investigations: 3 (13.0%)
  TEAE: Metabolism and nutritional disorders: 1 (4.3%)
Mild, Related, Safety Set
  TEAE: Abdominal distension: 1 (4.3%)
  TEAE: Abdominal pain lower: 1 (4.3%)
  TEAE: Anaemia: 1 (4.3%)
  TEAE: Asthenia: 1 (4.3%)
  TEAE: At least one event: 16 (70.0%)
  TEAE: Back pain: 1 (4.3%)
  TEAE: Blood ALP increased: 1 (4.3%)
  TEAE: Blood and lymphatic system disorders: 1 (4.3%)
  TEAE: Blood cholesterol increased: 1 (4.3%)
  TEAE: Blood triglycerides increased: 1 (4.3%)
  TEAE: Chills: 2 (8.7%)
  TEAE: Constipation: 1 (4.3%)
  TEAE: Cough: 1 (4.3%)
  TEAE: Decreased appetite: 4 (17.4%)
  TEAE: Diarrhoea: 4 (17.5%)
  TEAE: Diplopia: 1 (4.3%)
  TEAE: Dizziness: 1 (4.3%)
  TEAE: Dysgeusia: 1 (4.3%)
  TEAE: Dyspepsia: 1 (4.3%)
  TEAE: Eye disorders: 1 (4.3%)
  TEAE: Fall: 1 (4.3%)
  TEAE: Fatigue: 1 (4.3%)
  TEAE: Gastrointestinal disorders: 8 (34.8%)
  TEAE: General disorders and administration site conditions: 11 (47.8%)
  TEAE: Headache: 2 (8.7%)
  TEAE: Hypercholesterolaemia: 1 (4.3%)
  TEAE: Hypovolaemia: 1 (4.3%)
  TEAE: Infusion related reaction: 1 (4.3%)
  TEAE: Injection site reaction: 2 (8.7%)
  TEAE: Injury, poisoning and procedural complications: 2 (8.7%)
  TEAE: Investigations: 3 (13.0%)
  TEAE: Low density lipoprotein increased: 1 (4.3%)
  TEAE: Malaise: 1 (4.3%)
  TEAE: Metabolism and nutritional disorders: 5 (21.7%)
  TEAE: Musculoskeletal and connective tissue disorders: 2 (8.7%)
  TEAE: Musculoskeletal pain: 1 (4.3%)
  TEAE: Nausea: 4 (17.5%)
  TEAE: Nervous system disorders: 3 (13.0%)
  TEAE: Oxygen saturation decreased: 1 (4.3%)
  TEAE: Peripheral coldness: 1 (4.3%)
  TEAE: Pyrexia: 5 (21.7%)
  TEAE: Rash: 1 (4.3%)
  TEAE: Rash erythematous: 1 (4.3%)
  TEAE: Respiratory, thoracic and mediastinal disorders: 1 (4.3%)
  TEAE: Skin and subcutaneous tissue disorders: 2 (8.7%)
  TEAE: Vascular disorders: 1 (4.3%)
Mild, Unrelated, Safety Set
  TEAE: Abdominal distension: 1 (4.3%)
  TEAE: Abdominal pain: 2 (8.7%)
  TEAE: Abdominal pain upper: 1 (4.3%)
  TEAE: Anxiety: 2 (8.7%)
  TEAE: Ascites: 1 (4.3%)
  TEAE: Back pain: 2 (8.7%)
  TEAE: Blood ALP increased: 1 (4.3%)
